The test system of test [1] is IκB / NFκB in TNFα primed macrophages. Kind of test: IκB and nuclear NFκB western blot in activated macrophages. To be noted: vs DMSO. It is filed as cell-based, mouse. On the procedure:
Bone marrow derived macrophages (BMDM) were prepared as previously described by methods known to those skilled in the art. On day 5 of culture, 2×10^6 BMDM were seeded in 6-well plates and the following day were primed for 18 h with TNFα (20 ng/mL), followed by 1 h stimulation with E. faecalis (1 μg/mL; ATCC). Stimulation with E. faecalis was conducted in the presence of the zLLY-CH2F calpain-2 inhibitor (20 μg/mL) or DMSO as a control. Media was removed from treated BMDM, centrifuged at 300×g for 5 min and supernatent analyzed using the Cytometric Bead Array Mouse Inflammation Kit (BD Biosciences, San Jose, Calif.). Cytokine data were analyzed using Flowjo software (Ashland, Oreg.) and GraphPad Prism version 4.0 (GraphPad, La Jolla, Calif.). Cell pellets were lysed and analyzed for IκB and NFκB by Western blot as previously described (Miyazaki, T. et al. Journal of Atherosclerosis and Thrombosis 20, 228-237, 2013). […] Each day 4 wells were quantified using Celltiter MTS reagent (Promega) and the resulting signal was used to generate a proliferation curve. Calpain activity was measured using a Calpain activity assay kit (BioVision, Inc., Milpitas, Calif.) as previously described. Colons were harvested on day 4 and calpain activity measured. […] Supernatants were evaluated for a panel of cytokines including IFNγ, TNFα, IL-6, and MCP-1, IL-10, and IL-12. […]
(In general: In western blotting, separated proteins are transferred to a membrane and probed.)

The next test concerns the target T1, μ-calpain (Homo sapiens, UniProt P07384).
T1 sequence (P07384 1-714): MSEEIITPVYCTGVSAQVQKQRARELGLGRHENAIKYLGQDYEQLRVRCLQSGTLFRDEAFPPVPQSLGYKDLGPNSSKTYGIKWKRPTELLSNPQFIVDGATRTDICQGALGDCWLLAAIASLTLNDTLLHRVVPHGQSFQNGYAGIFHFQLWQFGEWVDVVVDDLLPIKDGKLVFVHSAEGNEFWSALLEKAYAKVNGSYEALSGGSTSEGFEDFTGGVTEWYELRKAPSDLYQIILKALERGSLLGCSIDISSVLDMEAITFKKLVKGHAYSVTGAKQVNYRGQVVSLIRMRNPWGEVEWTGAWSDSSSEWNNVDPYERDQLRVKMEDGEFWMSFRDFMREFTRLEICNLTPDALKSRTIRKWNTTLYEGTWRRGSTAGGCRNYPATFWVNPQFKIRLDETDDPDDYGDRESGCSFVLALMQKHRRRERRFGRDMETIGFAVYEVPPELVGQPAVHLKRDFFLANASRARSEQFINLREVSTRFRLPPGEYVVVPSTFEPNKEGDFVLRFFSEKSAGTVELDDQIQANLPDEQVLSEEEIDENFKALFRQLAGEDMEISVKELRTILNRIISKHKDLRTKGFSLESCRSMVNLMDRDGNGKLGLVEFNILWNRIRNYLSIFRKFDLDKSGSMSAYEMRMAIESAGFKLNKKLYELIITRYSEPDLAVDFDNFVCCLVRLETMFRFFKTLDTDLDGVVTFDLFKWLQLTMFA
To be noted: off-target; cited from earlier work.

SMILES strings stand for the structures. Where a SMILES comes first, the peptide text is derived from it. The star is where a group is joined. Cbz = O=C(OCc1ccccc1)*; CH2F = FC*

Consider `CC(C)C[C@H](NC(=O)OCc1ccccc1)C(=O)N[C@@H](CC(C)C)C(=O)N[C@@H](Cc1ccc(O)cc1)C(=O)CF` [zLLY-CH2F, Z-LLY-CH2F] (Cbz-Leu-Leu-Tyr-CH2F), for which, in test [1], the IκB degradation entry was “decreased” and the “NFκB localization to the nucleus” value is listed as “decreased”. For the same compound, at μ-calpain, the “inhibition of μ-calpain” value is listed as “not known to inhibit”.

The record behind these values is patent publication US20160279187A1, “CALPAIN INHIBITORS FOR IBD AND COLORECTAL CANCER TREATMENT” (UNIVERSITY OF HAWAII, priority 2013, published 2016).
